The record followed here is PMC2845622, “An Expanded Self-Antigen Peptidome Is Carried by the Human Lymph As Compared to the Plasma” (PLoS ONE, 2010).

Usually IC50 stands for the midpoint of a concentration-inhibition curve.

Experiment [1] has as its target HLA-DR4 (HLA-DRA*0101,-DRB1*0401) (Homo sapiens, UniProt P01903+P01911, A100K/A169T/F76Y/I96L/K127E/L162R/M171V/N62H/P40V/Q125Y/R42H/S133A/S149N/S66Y/V115G/V209L/W38E). Nature of the experiment: Competition fluorescence polarization peptide binding assay, HLA-DR4 with HLA-DM. (Fluorescence polarisation rises when a labelled molecule tumbles more slowly, as on binding a larger partner.)

Experiment [2] concerns the target HLA-DR1 (HLA-DRA*0101,-DRB1*0101) (Homo sapiens, UniProt P01903+P01911, A100R/D57E/F55L/F60I/F76Y/I96L/L162R/M171V/P40L/Q125E/R42F/V115G/Y59C). Description: Competition fluorescence polarization peptide binding assay, HLA-DR1. The following applies: competition with Alexa488-HA peptide 25 nM, HLA-DR1 100 nM, 3 days at 37°C, citrate pH 5/5.5; mean of single fit to triplicate values.

Experiment [3] has as its system lymph node T cells of HLA-DR1 or HLA-DR4 transgenic mice. Nature of the experiment: T cell proliferation (thymidine incorporation) in lymph nodes from peptide immunized mice. It is filed as cell-based, mouse. The settings on record: mice immunized with 100 µg peptide in complete Freund's adjuvant, lymph nodes 14 days later, 72 h culture with titrated peptide. As to the method: Finally we asked whether any of the tight-binding peptides, which also were conserved between mouse and human, could be recognized by peripheral T cells. HLA-DR1 or HLA-DR4 transgenic mice were immunized with 100 µg of several of the extracellular matrix peptides in complete Freund's adjuvant in the flanks and nape of the neck. Draining lymph nodes were collected 14 days later and reactive T cells analyzed by proliferation assay with thymidine incorporation.
HLA-DR1 and HLA-DR4 mice were immunized in the flanks and nape of the neck with 100 micrograms of peptide emulsion in Freund's adjuvant. Two weeks later popliteal and axillary lymph nodes were harvested and tested in proliferation assay. Briefly 6×10^5 cells were seeded in a 96 well plate with or without titrated amount of the immunizing peptide for 72 hours. Thymidine ([…]) was added 18 hours before cell harvesting. Cells were harvested on a Tomtec harvester (Model 94-3-468) and incorporated thymidine counted on a liquid scintillation counter (1450 Microbeta Wallac Trilux).

[4] abbreviates: competition with Alexa488-HA peptide 25 nM, HLA-DR4 and HLA-DM 100 nM each, 1 mM DTT, 3 days at 37°C, citrate pH 5/5.5, mean of single fit to triplicate values, read-out: DR4 IC50.

Like-named read-outs stand apart in the source and are kept apart here. Ends that are not written are not given here.

Consider NYAILRNLQP [nYAILRNLQP], for which the IC50 is 56.4 µM in experiment [1] (setting [4]) and 54.6 µM in experiment [2].
Consider “Ac-NGVVGPTGPVGAAGP-NH2 [ngvVGPTGPVGAagp]”, for which the IC50 in experiment [1] (setting [4]) is greater than 100 µM.
On to Ac-GALLGAPPPLVPAP [gaLLGAPPPLVpap], for which the half-maximal inhibitory concentration (IC50) in experiment [1] (setting [4]) was found to be 8.8 µM; in experiment [2], 10.8 µM.
The substance Ac-KNFASVQGVSLESG [knFASVQGVSLesg] returned a 50% inhibitory concentration (IC50) in experiment [2] of 0.42 µM.
As to “Ac-NGVVGPTGPVGAAGPA-NH2 [ngVVGPTGPVGaagpa]”, the IC50 in experiment [1] (setting [4]) was greater than 100 µM; in experiment [2], 18 µM.
As for Ac-DPFRLQSTSQHN [dpFRLQsTsQHn], in experiment [3], the “Proliferative response of draining lymph node T cells to immunizing peptide” value is “significant proliferation index”. The IC50 in experiment [1] (setting [4]) is 1.3 µM.
As for MGPMGPRGPPGPA-NH2 [MGPMGPRGPpgpa], in experiment [1] (setting [4]), the IC50 is greater than 100 µM.
For Ac-PGALLGAPPPLVPAP [pgaLLGAPPPLVpap], in experiment [1], the IC50 is greater than 100 µM.
For MLQGTSSVLLLWG-NH2 [mLQGTsSVLLlwg], the IC50 worked out at 79.6 µM in experiment [1] (setting [4]) and 62.4 µM in experiment [2].
With Ac-HQVSINNTAVMQRL [hqVSINNTAVMqrl], the figures for the IC50 in experiment [1] (setting [4]) and in experiment [2] were 4.7 µM and 41.6 µM, respectively.
The corresponding values for Ac-PQGFQGNPGEPGE [pqgFQGNPGEPGe] are greater than 100 µM and 0.8 µM.
For Ac-SPWIDASTAIDA [spWIDASTAIDa], the IC50 in experiment [1] (setting [4]) came out at 60.1 µM.
For the substance Ac-EDTFAHLTPTPT [edtFAHLTPTPT], in experiment [2], the IC50 turned out to be 1.7 µM.
